Each structure is given as a SMILES string. The source made the active and inactive calls. How the calls were made is not given here.

The assay deals with Chaperone protein DnaK (Escherichia coli (strain K12)) (UniProt P0A6Y8). Nature of the assay: E. coli DnaK SBD ligand binding – biophysical, NMR, chaperone (AID 1033). The note with it: Purified DnaK SBD.
Chaperone protein DnaK (Escherichia coli (strain K12)), sequence (P0A6Y8 whole entry, looked up): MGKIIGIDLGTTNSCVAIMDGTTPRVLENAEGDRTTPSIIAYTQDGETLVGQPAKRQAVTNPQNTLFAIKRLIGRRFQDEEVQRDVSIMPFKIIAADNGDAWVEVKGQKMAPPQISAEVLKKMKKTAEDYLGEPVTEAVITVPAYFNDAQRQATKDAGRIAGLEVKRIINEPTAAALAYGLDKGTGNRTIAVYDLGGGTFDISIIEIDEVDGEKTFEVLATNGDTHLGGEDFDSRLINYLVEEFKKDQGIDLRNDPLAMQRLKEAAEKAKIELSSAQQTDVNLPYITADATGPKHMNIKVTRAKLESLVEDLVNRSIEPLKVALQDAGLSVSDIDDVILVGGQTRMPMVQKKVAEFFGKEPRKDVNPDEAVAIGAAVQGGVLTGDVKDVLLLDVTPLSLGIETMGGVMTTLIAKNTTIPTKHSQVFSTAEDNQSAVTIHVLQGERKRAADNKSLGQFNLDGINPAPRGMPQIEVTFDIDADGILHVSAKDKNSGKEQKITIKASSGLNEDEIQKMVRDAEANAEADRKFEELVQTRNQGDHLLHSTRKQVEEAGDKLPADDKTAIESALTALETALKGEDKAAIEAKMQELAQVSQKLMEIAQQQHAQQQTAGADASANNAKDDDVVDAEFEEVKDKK
As usually defined, the Kd is the constant that tells how readily two partners part at equilibrium. On to `O=C(O)c1ccc2nsnc2c1`, for which the Kd is > 4 mM (inactive).

Take `C/C=C1\[C@H]2C=C(C)C[C@]1(N)c1ccc(=O)[nH]c1C2`: the Kd was > 4 mM (inactive).

`Cc1ccc(O)c(NC(=O)c2ccco2)c1`: the Kd was > 4 mM (inactive).

As to `C#CCCCCCCCCCCCc1ccco1`, the Kd was > 4 mM (inactive).

Take `CC(=O)Nc1cc(O)cc(O)c1`: the Kd is > 4 mM (inactive).

As to `CC(=O)NC(=S)Nc1ccc(N(C)C(C)=O)cc1`, the Kd was > 4 mM (inactive).

As to `Nc1ccc(Cc2ccc(N)cc2)cc1`, the Kd was > 4 mM (inactive).

Regarding `O=C(c1ccccc1)c1cncc(Br)c1`, the Kd was > 4 mM (inactive).

On to `Cc1ccc2[nH]cc(CCN)c2c1`, for which the Kd was > 4 mM (inactive).

Take `CCn1cnc2cc(NCc3ccncc3)ccc21`: the Kd is > 4 mM (inactive).

`CNCc1ccccc1`: the Kd was > 4 mM (inactive).

Turning to `Cn1c(CN)nc2ccccc21`, the Kd is > 4 mM (inactive).

Take `Nc1cc(=O)[nH]c(=S)n1-c1cccc(C(F)(F)F)c1`: the Kd is > 4 mM (inactive).

Turning to `Cc1nc(-c2ccccc2)ncc1C(=O)O`, the Kd is > 4 mM (inactive).

For the molecule `CCC1C(=O)OCC1Cc1cncn1C` (stereo not drawn), the Kd was > 4 mM (inactive).

As to `O=C(O)CSCc1c(F)cccc1Cl`, the Kd was > 4 mM (inactive).

As to `NC(=O)c1ccsc1NC(=O)c1ccco1`, the Kd is > 4 mM (inactive).

On to `COc1ccc(C2CC(=O)c3ccc(OC)cc3O2)cc1` (stereo not drawn), for which the Kd is > 4 mM (inactive).

Turning to `CC(=O)Nc1ccc(S(=O)(=O)NC(N)=O)cc1`, the Kd is > 4 mM (inactive).

Consider `O=C(NC1=NCCS1)c1ccc(Cl)s1`, for which the Kd was > 4 mM (inactive).

For the molecule `O=C(CSc1ncn[nH]1)c1ccc2c(c1)OCO2`, the Kd is > 4 mM (inactive).

Consider `CCC(=O)OC1[C@@H]2CC3=C4CC(=O)O[C@@H](c5ccoc5)[C@]4(C)CCC3C(C)(C2=O)[C@@H](CC(=O)OC)C1(C)C` (stereo partly drawn), for which the Kd is > 4 mM (inactive).

For the molecule `O=S(=O)(Cc1ccccc1Cl)Nc1ccccn1`, the Kd is > 4 mM (inactive).

Regarding `O=C(Nc1ccccc1C(F)(F)F)c1cnccn1`, the Kd was > 4 mM (inactive).

In the case of `N#CCCn1ccnc1-c1ccccc1`, the Kd is > 4 mM (inactive).

With `CCn1nnnc1Oc1ccc(Cl)cc1`, the Kd is > 4 mM (inactive).

Turning to `S=C(c1ccc(N2CCOCC2)cc1)N1CCCCC1`, the Kd was > 4 mM (inactive).

`Cc1oc(-c2ccccc2)cc1C(N)=O`: the Kd is > 4 mM (inactive).

For the molecule `c1cc(CNc2ccc3c(c2)OCCO3)ccn1`, the Kd was > 4 mM (inactive).

Regarding `COc1cc2cc3c4cc(OC)c(OC)cc4cc[n+]3c(C)c2cc1OC`, the Kd is > 4 mM (inactive).

Consider `O=C(Cc1cccs1)Nc1ccon1`, for which the Kd is > 4 mM (inactive).

Regarding `CNC(=O)C(=O)NCc1ccc(C)cc1`, the Kd is > 4 mM (inactive).

As to `CCOc1ccc(-c2c(=O)n(O)c3ccccc3[n+]2[O-])cc1`, the Kd is > 4 mM (inactive).

On to `NC(=O)CSc1ccccn1`, for which the Kd is > 4 mM (inactive).

Turning to `CN(C)C1CCS(=O)(=O)C1` (stereo not drawn), the Kd was > 4 mM (inactive).

Regarding `CC(=O)Nc1nnc(-c2ccccn2)o1`, the Kd is > 4 mM (inactive).

Regarding `O=C(O)C1COc2ccccc2O1` (stereo not drawn), the Kd is > 4 mM (inactive).

Consider `O=C1CCC(C(=O)NCc2cccnc2)N1` (stereo not drawn), for which the Kd was > 4 mM (inactive).

On to `CCn1nnc2c(NCc3ccccn3)ncnc21`, for which the Kd was > 4 mM (inactive).

In the case of `CCOc1ccc(C(=O)c2ccc(OC)c(O)c2O)cc1`, the Kd was > 4 mM (inactive).

For `COC1CC(O[C@H]2CC[C@]3(C=O)C4CC[C@]5(C)C(C6=CC(=O)OC6)CC[C@]5(O)C4CC[C@]3(O)C2)OC(C)C1O` (stereo partly drawn), the Kd was > 4 mM (inactive).

Regarding `Cn1cc(Cl)c(C(=O)NC2CCCC2)n1`, the Kd was > 4 mM (inactive).

In the case of `O=C(CC1SC(=O)NC1=O)Nc1ccccc1` (stereo not drawn), the Kd is > 4 mM (inactive).

As for `CC(C)C(C)/C=C/C(C)[C@H]1CCC2C3=CCC4CC(=O)CC[C@]4(C)C3CC[C@@]21C` (stereo partly drawn), the Kd was > 4 mM (inactive).

Regarding `O=c1[nH]cc(NCc2ccco2)c(=O)[nH]1`, the Kd was > 4 mM (inactive).

In the case of `CC(=O)c1cc2c(s1)SCC(=O)N2`, the Kd was > 4 mM (inactive).

For the molecule `c1ccc(C[N+]23CCN(CC2)CC3)cc1`, the Kd was > 4 mM (inactive).

As for `O=C1C2=C(SCCS2)C(=O)N1CCCO`, the Kd is > 4 mM (inactive).

On to `CN(C(=O)c1cc2cccnc2n(C)c1=O)c1ccccc1`, for which the Kd was > 4 mM (inactive).

On to `COc1ccc(-c2nnc(-c3ccc(N)cc3)o2)cc1`, for which the Kd is > 4 mM (inactive).

`CCCn1c(C)cc(=O)[nH]c1=O`: the Kd is > 4 mM (inactive).

For `CC1(C)CN=C(Nc2nc3ccccc3s2)S1`, the Kd is > 4 mM (inactive).

In the case of `O=C(C1CCCCC1)N1CCN(c2ccccc2F)CC1`, the Kd is > 4 mM (inactive).

Regarding `COC(=O)C1CCN(c2ccc(Cl)nn2)CC1`, the Kd is > 4 mM (inactive).

As for `Cc1cccc(NC(=O)c2ccc(=O)[nH]n2)c1`, the Kd is > 4 mM (inactive).

As for `COc1ccc(-c2ccc(SCC(N)=O)nn2)cc1`, the Kd is > 4 mM (inactive).

In the case of `CC1CCCN(C/C(O)=C(\C#N)c2nc3ccccc3[nH]2)C1` (stereo not drawn), the Kd was > 4 mM (inactive).

Take `Cc1ccc(-c2nc(N)n(C(=O)c3cccnc3)n2)cc1`: the Kd was > 4 mM (inactive).

Take `NC1CN2CCC1CC2` (stereo not drawn): the Kd is > 4 mM (inactive).

For `CNc1nc(C)nc(-n2nc(C)cc2C)n1`, the Kd was > 4 mM (inactive).

Consider `O=C(O)CCC1NCC2CC1CN1CCCCC21` (stereo not drawn), for which the Kd was > 4 mM (inactive).

Regarding `CS(=O)(=O)N/N=C/c1cccs1`, the Kd was > 4 mM (inactive).

Consider `Nc1ccc2c(c1)N1CCN=C1S2`, for which the Kd was > 4 mM (inactive).

In the case of `CN1C(=O)C2CC=C(Cl)CC2C1=O` (stereo not drawn), the Kd is > 4 mM (inactive).

`CN1C(=O)c2ccc(N=C3NC(=O)CS3)cc2C1=O`: the Kd is > 4 mM (inactive).

On to `NC(=O)CSc1nnc(-c2cccnc2)o1`, for which the Kd was > 4 mM (inactive).

As for `Cc1c(C(=O)NC2=NCCS2)oc2ccccc12`, the Kd is > 4 mM (inactive).

In the case of `CCC(/C=C/[C@@H](C)[C@H]1CCC2C3CC=C4C[C@@H](O)CC[C@]4(C)C3CC[C@@]21C)C(C)C` (stereo partly drawn), the Kd is > 4 mM (inactive).

Turning to `c1ccc(-c2noc(-c3cccnc3)n2)nc1`, the Kd is > 4 mM (inactive).

As for `O=C(Nc1cccnc1)c1c(F)c(F)c(F)c(F)c1F`, the Kd is > 4 mM (inactive).

Take `NC1=NC(=O)C(Cc2cccc([N+](=O)[O-])c2)S1` (stereo not drawn): the Kd is > 4 mM (inactive).

In the case of `O=C(O)c1ccc2[nH]c3c(c2c1)CSCC3`, the Kd is > 4 mM (inactive).

`O=C(O)c1ccc(Oc2ccccc2)nc1`: the Kd was > 4 mM (inactive).

`Cc1onc(-c2ccccc2)c1C(=O)O`: the Kd is > 4 mM (inactive).

As to `CC(=O)Oc1ccc(N2C(=O)C3C4C=CC(O4)C3C2=O)cc1` (stereo not drawn), the Kd was > 4 mM (inactive).

`O=c1c(O)c(-c2ccccc2)oc2ccc3occc3c12`: the Kd was > 4 mM (inactive).

As for `O=C(O)Cc1nc(-c2ccncc2)n[nH]1`, the Kd was > 4 mM (inactive).

On to `Cn1nnc2cc(C(=O)NCc3ccco3)ccc21`, for which the Kd is > 4 mM (inactive).

For `O=C1CCNc2cc3ccccc3cc21`, the Kd was > 4 mM (inactive).

Take `O=C(c1ccco1)N1CCNCC1`: the Kd was > 4 mM (inactive).

Take `Cc1[nH]ccc2c1[nH]c1cc(=O)ccc12`: the Kd was > 4 mM (inactive).

Regarding `NC(=O)CS(=O)(=O)c1ccc2ccccc2c1`, the Kd is > 4 mM (inactive).

As to `COc1cc2c(cc1-c1cc3cc4ccoc4cc3oc1=O)OCO2`, the Kd was > 4 mM (inactive).

On to `CC1(C)C(=O)N(O)C(C)(C)C(=O)N1O`, for which the Kd was > 4 mM (inactive).

As for `CNS(=O)(=O)c1cc(OC)ccc1OC`, the Kd was > 4 mM (inactive).

Regarding `O=[N+]([O-])c1c[n+]([O-])n(-c2ccccc2)n1`, the Kd was > 4 mM (inactive).

Take `Cc1ccccc1N1C(=O)CC(=O)NC1=O`: the Kd is > 4 mM (inactive).

Turning to `O=C(Nc1ccon1)c1ccc2c(c1)OCO2`, the Kd is > 4 mM (inactive).

On to `CC(=O)Nc1ccc2c(c1)C(=O)N(C1CCCCC1)C2=O`, for which the Kd is > 4 mM (inactive).

On to `O=C(c1ccccc1-c1ccccc1)N1CCOCC1`, for which the Kd is > 4 mM (inactive).

As for `Nc1nc2ccc(S(N)(=O)=O)cc2s1`, the Kd was > 4 mM (inactive).

As for `CC1(C)C=Cc2cc3ccc(=O)oc3cc2O1`, the Kd was > 4 mM (inactive).

Regarding `Cc1nc(-c2ccc(CO)s2)cs1`, the Kd is > 4 mM (inactive).

Consider `O=S1(=O)CCC(N2CCCCC2)C1` (stereo not drawn), for which the Kd was > 4 mM (inactive).

As to `NNc1ncnc2sccc12`, the Kd was > 4 mM (inactive).

Take `NCc1csc(-c2cccs2)n1`: the Kd is > 4 mM (inactive).

As for `Cc1cc(=O)oc2cc3c(cc12)OCCO3`, the Kd is > 4 mM (inactive).

For `CC(C)NC(=O)c1nc2ccccc2s1`, the Kd was > 4 mM (inactive).

For the molecule `Cc1ccc(CNc2ccc(O)cc2)cc1`, the Kd was > 4 mM (inactive).

Consider `CNC(=O)C(=O)Nc1c(C)cccc1C`, for which the Kd was > 4 mM (inactive).

For the molecule `NCCN=C1NS(=O)(=O)c2ccccc21`, the Kd is > 4 mM (inactive).

With `NCc1ccccc1N1CCCCC1`, the Kd is > 4 mM (inactive).

On to `O=c1cnnc(N2CCCCC2)[nH]1`, for which the Kd is > 4 mM (inactive).

As to `Cc1ccc(C(=O)Nn2cnnc2)s1`, the Kd is > 4 mM (inactive).

Consider `c1ccc(Cc2nnc3sc(-c4ccncc4)nn23)cc1`, for which the Kd is > 4 mM (inactive).

Turning to `CCCCCCCCCCCCCCC(C(=O)O)C(O)(CC(=O)OC)C(=O)O` (stereo not drawn), the Kd is > 4 mM (inactive).

On to `NC(=O)c1c[nH]c2ccccc12`, for which the Kd is > 4 mM (inactive).

Consider `NC(=O)CSc1nc2ccccc2[nH]1`, for which the Kd is > 4 mM (inactive).

The record behind these values is PubChem BioAssay AID1033 (Sanford-Burnham Center for Chemical Genomics, 2008).
